Where two headings read alike, the source gives them in different places.
Assays:
[1] = biological target: PPAR-γ (Homo sapiens, UniProt P37231); conditions: data not shown
Protocol: (§1) Cells were incubated overnight with the various compounds and luciferase activity was then determined in cell lysates. Transactivation activity of the human mineralocorticoid receptor (MR) and peroxisome proliferator-activated receptors (PPAR-γ and PPAR-δ) used the fluorimetric Gene Blazer β-lactamase assay system (InVitrogen) following the manufacturer's instructions. Assays were conducted on 384-well plates using a fluorogenic substrate (CCF4-AM, InVitrogen).

[2] = tested on: glucocorticoid receptor (GR); conditions: data not shown
Protocol: as §1

[3] = tested on: PLP(139–151)-induced EAE in female SJL/J mice; conditions: 40 mg/kg soluble formulation (cyclodextran) s.c. daily from onset
[4] = biological target: T1, PPAR-δ (Homo sapiens, UniProt Q03181); test: Gene Blazer β-lactamase transactivation assay, PPAR-δ; format: cell-based
T1 sequence (Q03181 211-441 limits assumed): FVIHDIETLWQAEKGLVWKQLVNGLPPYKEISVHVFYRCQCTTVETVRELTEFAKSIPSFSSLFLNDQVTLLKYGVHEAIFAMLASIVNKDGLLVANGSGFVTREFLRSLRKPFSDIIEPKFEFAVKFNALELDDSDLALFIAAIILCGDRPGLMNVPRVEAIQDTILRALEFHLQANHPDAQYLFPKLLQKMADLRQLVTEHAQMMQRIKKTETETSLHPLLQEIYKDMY
Protocol: as §1

[5] = tested on: LPS-induced shock in CD1 mice; conditions: for Serum levels of TNFα: male CD-1 mice, LPS 0.5 mg
Protocol: Six-week-old CD1 mice (Charles River, Calco, Italy) were kept under standard laboratory (nonspecific pathogen free) conditions at the University of Catania, School of Medicine, and were housed in a controlled environment and provided with standard rodent chow and water. Animal care and use was in compliance with all applicable regulations on protection of animals used for experimental and other scientific purposes.
To induce lethal endotoxemia, the mice were injected i.p. with 1 mg LPS (Sigma Chimica, Milan, Italy, code L6011, Lot K4096). […] In some studies (performed by Harbor Biosciences) male mice (n = 4 per group) were used and serum was taken 2 hours after LPS (0.5 mg) challenge, to measure levels of TNFα by ELISA.
All P-values of less than .05 were considered significant. For statistical analysis each group is compared to that of vehicle-treated control.

[6] = humans, injection of 100–200 mg suspension formulation, for several weeks; ref Stickney et al., in preparation; cited from earlier work
[7] = tested on: CAR-induced pleurisy in CD1 male mice; conditions: 40 mg/kg suspension s.c. 24 h and 1 h before CAR, vs vehicle
[8] = in vivo; conditions: mouse
[9] = tested on: PLP(139–151)-induced EAE in female SJL/J mice
Text: Mice Female SJL/J mice (6 to 8 weeks of age; Charles River Italia, Udine, Italy) were maintained in a pathogen-free vivarium at the University of Catania, School of Medicine (Catania, Italy) receiving ad libitum sterilized food and water, and were adapted to the ambient environment for at least 7 days before the start of the study. Animal care and use was in compliance with all applicable regulations for the protection of animals used for experimental and other scientific purposes.
Disease symptoms were monitored daily and scored in a blinded manner using the following scale: 0: no illness, 1: flaccid tail, 2: moderate paraparesis, 3: severe paraparesis, 4: moribund state, 5: death. Mice were randomized to each experimental group before immunization to induce EAE. […] Statistical analysis of cumulative clinical scores was performed by ANOVA analysis for unpaired data. A P-value <.05 was considered to be statistically significant. For statistical analysis, the mice that succumbed to EAE were assigned 5 only for the day of death and then were deleted from the experimental group.

[10] = biological target: T2, human mineralocorticoid receptor (MR) (Homo sapiens, UniProt P08235); test: Gene Blazer β-lactamase transactivation assay, MR; format: cell-based; conditions: data not shown
T2 sequence (P08235 726-984 limits assumed): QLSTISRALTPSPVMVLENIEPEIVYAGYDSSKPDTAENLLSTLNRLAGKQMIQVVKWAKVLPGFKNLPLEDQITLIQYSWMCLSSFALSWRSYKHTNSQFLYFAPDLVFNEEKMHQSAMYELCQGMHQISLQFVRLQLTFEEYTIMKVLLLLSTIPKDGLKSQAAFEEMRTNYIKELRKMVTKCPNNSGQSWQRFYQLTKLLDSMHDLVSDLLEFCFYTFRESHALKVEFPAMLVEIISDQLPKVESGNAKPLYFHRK
Protocol: as §1

[11] = tested on: ERα/β; conditions: read-out: Transactivation EC50, T47D-kBluc; ERE-luciferase; cells express ERα and ERβ; mean ± SEM (n)
Protocol: as §1

[12] = soluble formulation (cyclodextran), Harbor Biosciences, unpublished observations

Sequence of PPAR-γ (P37231 238-505 limits assumed): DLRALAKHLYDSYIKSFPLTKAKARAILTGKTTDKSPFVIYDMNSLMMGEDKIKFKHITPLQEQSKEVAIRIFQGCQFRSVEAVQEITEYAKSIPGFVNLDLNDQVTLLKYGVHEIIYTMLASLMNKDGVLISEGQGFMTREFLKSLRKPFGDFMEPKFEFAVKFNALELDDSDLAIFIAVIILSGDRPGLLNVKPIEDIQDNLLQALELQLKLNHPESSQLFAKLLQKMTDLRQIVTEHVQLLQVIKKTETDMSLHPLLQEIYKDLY

C[C@]12CC[C@H]3[C@@H](CC=C4C[C@@H](O)CC[C@@]43C)[C@@H]1CC[C@@H]2O [5-AED, androst-5-ene-3β,17β-diol]
Transactivation of PPAR-γ [1]: does not transactivate
Transactivation of human glucocorticoid receptor [2]: does not transactivate
EAE clinical score vs vehicle [3]: no significant differences
Transactivation of PPAR-δ ([4]; data not shown): does not transactivate
Serum levels of TNFα ([5]; 0.4 mg/kg s.c.): not effective
Serum levels of TNFα ([5]; 4.0 mg/kg s.c.): not effective
Lethality ([5]; 40 mg/kg s.c. given 4 hours after LPS, data not shown): 100%
Lethality ([5]; 40 mg/kg s.c. given 8 hours after LPS, data not shown): 100%
Lethality ([5]; 40 mg/kg s.c. given 24 hours after LPS, data not shown): 100%
Lethality ([5]; 40 mg/kg s.c. given 24 hours before LPS (1 mg i.p.), 72 h, vehicle 100%): 50%
Serum levels of TNFα ([5]; 40 mg/kg suspension s.c., vs vehicle, P < .05): significantly (P < .05) reduced
Sustained serum levels of 5-AED [6]: ~ 30 ng/mL
IL-6 level in pleural rinse ([7]; at 4 and 5 hours): significantly reduced
TNFα level in pleural rinse ([7]; at 4 hours): significantly reduced
Cmax [8]: < 5 µg/mL
Cmax ([8]; 40 mg/kg): ~0.1 µg/mL
concentration at 96 h ([8]; 40 mg/kg): ~0.01 µg/mL
Mortality ([9]; 0.4 mg/kg suspension s.c., after day 17): 6/10
Cumulative disease score ([9]; 0.4 mg/kg suspension s.c., surviving mice only): 14.5 ± 3.7
Lethality ([9]; 4 mg/kg suspension s.c.): No lethality
Cumulative disease score ([9]; 4 mg/kg suspension s.c. from Day 8 to Day 30, trend, vehicle 25.4 ± 9.3): 18.1 ± 9.9
Lethality ([9]; 40 mg/kg suspension s.c.): No lethality
Cumulative disease score ([9]; 40 mg/kg suspension s.c. from Day 8 to Day 30, vehicle 25.4 ± 9.3): 14.4 ± 9.1
Incidence of EAE ([9]; all groups (0.4, 4.0, 40 mg/kg)): 100%
Minimally effective dose ([9]; suspension s.c.): 4 to 40 mg/kg
Time to Cmax (40 mg/kg as suspension, mice): within one hour
Time to Cmax [12]: within minutes
Time to complete clearance [12]: 8 to 12 h
Transactivation of human mineralocorticoid receptor [10]: does not transactivate

CCCc1c(OCCCOc2ccc(OCC(=O)O)cc2)ccc(C(C)=O)c1O [L165,041, reference compound]
EC50 ([4]; reference compound): 0.0011 µM
